Assay results from PubChem BioAssay (NCI).
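Following 48 hours of exposure in 96-well plates, responses at five concentrations were used to interpolate endpoints linearly. At the GI50, growth is halved. TGI marks complete inhibition of growth.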

Legend:
Experiment in all cases: NCI anticancer screen, dose series, 48 h
[1] = system: MOLT-4 leukemia
[2] = system: RXF 393 renal
[3] = system: BT-549 breast
[4] = system: EKVX NSCLC
[5] = system: HCT-116 colon
[6] = system: MDA-N
[7] = system: HT29 colon
[8] = system: UACC-62 melanoma
[9] = system: SNB-19 CNS
[10] = system: 786-0 renal
[11] = system: SW-620 colon
[12] = system: OVCAR-5 ovarian
[13] = system: T-47D breast
[14] = system: KM12 colon
[15] = system: K-562 leukemia
[16] = system: IGROV1 ovarian
[17] = system: ACHN renal
[18] = system: HS 578T breast
[19] = system: PC-3 prostate
[20] = system: SF-268 CNS
[21] = system: HOP-92 NSCLC
[22] = system: OVCAR-3 ovarian
[23] = system: HCT-15 colon
[24] = system: A498 renal
[25] = system: MDA-MB-231 breast
[26] = system: HOP-62 NSCLC
[27] = system: SF-295 CNS
[28] = system: CCRF-CEM leukemia
[29] = system: HL-60(TB) leukemia
[30] = system: SK-MEL-28 melanoma
[31] = system: SN12C renal
[32] = system: A549 NSCLC
[33] = system: RPMI-8226 leukemia
[34] = system: UACC-257 melanoma
[35] = system: TK-10 renal
[36] = system: HCC-2998 colon
[37] = system: NCI-H460 lung
[38] = system: SF-539 CNS
[39] = system: SNB-75 CNS
[40] = system: COLO 205 colon
[41] = system: MDA-MB-435
[42] = system: U251 CNS
[43] = system: UO-31 renal
[44] = system: CAKI-1 renal
[45] = system: NCI-H522 lung
[46] = system: DU-145 prostate
[47] = system: OVCAR-4 ovarian
[48] = system: M14 melanoma
[49] = system: SK-MEL-2 melanoma
[50] = system: LOX IMVI melanoma
[51] = system: NCI/ADR-RES ovarian
[52] = system: OVCAR-8 ovarian
[53] = system: SK-MEL-5 melanoma
[54] = system: NCI-H226 lung
[55] = system: MALME-3M melanoma
[56] = system: SK-OV-3 ovarian
[57] = system: MCF7 breast
[58] = system: NCI-H23 lung

SMILES: C[C@]12CC[C@H](O)C[C@H]1CC[C@@H]1[C@@H]2CC[C@]2(C)[C@@H](C3=CC(=O)OC3)CC[C@]12O
- TGI [1]: 0.0537 µM
- TGI [2]: 0.0681 µM
- TGI [3]: 0.134 µM
- TGI [4]: 0.433 µM
- TGI [5]: 0.0663 µM
- TGI [6]: 0.806 µM
- TGI [7]: 1.6 µM
- GI50 [8]: 0.32 µM
- TGI [8]: 1.09 µM
- TGI [9]: 2.2 µM
- GI50 [10]: 0.0337 µM
- TGI [10]: 0.142 µM
- TGI [11]: 1.57 µM
- TGI [12]: 1.93 µM
- TGI [13]: 0.858 µM
- TGI [14]: 3.27 µM
- TGI [15]: 1.42 µM
- TGI [16]: 2.82 µM
- TGI [17]: 0.825 µM
- TGI [18]: > 100 µM
- GI50 [19]: 0.178 µM
- TGI [19]: 3.7 µM
- TGI [20]: 0.226 µM
- TGI [21]: 1.1 µM
- TGI [22]: 0.204 µM
- TGI [23]: 0.316 µM
- GI50 [24]: 0.0591 µM
- TGI [24]: 0.378 µM
- TGI [25]: > 62.2 µM
- GI50 [26]: 0.0313 µM
- TGI [26]: 0.169 µM
- GI50 [27]: 0.0292 µM
- TGI [27]: 0.0959 µM
- TGI [28]: 44.4 µM
- GI50 [29]: 0.0391 µM
- TGI [29]: 0.272 µM
- TGI [30]: 2.01 µM
- TGI [31]: 0.327 µM
- TGI [32]: 0.0456 µM
- TGI [33]: 0.558 µM
- TGI [34]: 2.63 µM
- TGI [35]: 1.59 µM
- TGI [36]: 0.675 µM
- TGI [37]: 0.139 µM
- TGI [38]: 0.16 µM
- TGI [39]: 2.12 µM
- TGI [40]: 2.32 µM
- TGI [41]: 1.02 µM
- TGI [42]: 1.52 µM
- TGI [43]: 4.07 µM
- TGI [44]: 0.18 µM
- TGI [45]: 0.436 µM
- GI50 [46]: 0.0325 µM
- TGI [46]: 0.146 µM
- GI50 [47]: 0.0389 µM
- TGI [47]: 0.226 µM
- TGI [48]: 1.6 µM
- TGI [49]: 1.56 µM
- TGI [50]: 0.533 µM
- TGI [51]: 0.573 µM
- TGI [52]: 1.07 µM
- TGI [53]: 0.205 µM
- TGI [54]: 2.83 µM
- TGI [55]: 0.523 µM
- TGI [56]: 0.818 µM

SMILES: O=C1NC(N/N=C/C(O)C(O)C(O)CO)=N/C1=C\c1ccco1 (stereo unspecified)
- TGI [1]: > 100 µM
- TGI [2]: > 100 µM
- TGI [3]: > 100 µM
- TGI [4]: > 100 µM
- TGI [5]: > 100 µM
- TGI [6]: > 100 µM
- TGI [7]: > 100 µM
- TGI [8]: > 100 µM
- TGI [9]: > 100 µM
- TGI [10]: > 100 µM
- TGI [11]: > 100 µM
- TGI [12]: > 100 µM
- TGI [13]: > 100 µM
- TGI [14]: > 100 µM
- TGI [57]: > 100 µM
- TGI [15]: > 100 µM
- TGI [16]: > 100 µM
- TGI [17]: > 100 µM
- TGI [18]: > 100 µM
- TGI [20]: > 100 µM
- TGI [21]: > 100 µM
- TGI [22]: > 100 µM
- TGI [23]: > 100 µM
- TGI [24]: > 100 µM
- TGI [25]: > 100 µM
- TGI [26]: > 100 µM
- TGI [27]: > 100 µM
- TGI [28]: > 100 µM
- TGI [29]: > 100 µM
- TGI [30]: > 100 µM
- TGI [31]: > 100 µM
- TGI [32]: > 100 µM
- TGI [58]: > 100 µM
- TGI [33]: > 100 µM
- TGI [34]: > 100 µM
- TGI [35]: > 100 µM
- TGI [36]: > 100 µM
- TGI [37]: > 100 µM
- TGI [38]: > 100 µM
- TGI [39]: > 100 µM
- TGI [40]: > 100 µM
- TGI [41]: > 100 µM
- TGI [42]: > 100 µM
- TGI [44]: > 100 µM
- TGI [45]: > 100 µM
- TGI [46]: > 100 µM
- TGI [47]: > 100 µM
- TGI [48]: > 100 µM
- TGI [50]: > 100 µM
- TGI [51]: > 100 µM
- TGI [52]: > 100 µM
- TGI [53]: > 100 µM
- TGI [54]: > 100 µM
- TGI [55]: > 100 µM
- TGI [56]: > 100 µM

SMILES: CC1=NN(c2ccc(S(=O)(=O)O)cc2)C2(C1)SCC(=O)N2c1nc2ccccc2s1 (stereo unspecified)
- TGI [1]: > 100 µM
- TGI [2]: > 100 µM
- TGI [3]: > 100 µM
- TGI [4]: > 100 µM
- TGI [5]: > 100 µM
- TGI [6]: > 100 µM
- TGI [7]: > 100 µM
- TGI [8]: > 100 µM
- TGI [9]: > 100 µM
- TGI [10]: > 100 µM
- TGI [11]: > 100 µM
- TGI [12]: > 100 µM
- TGI [13]: > 100 µM
- TGI [14]: > 100 µM
- TGI [57]: > 100 µM
- TGI [15]: > 100 µM
- TGI [16]: > 100 µM
- TGI [17]: > 100 µM
- TGI [18]: > 100 µM
- TGI [19]: > 100 µM
- TGI [20]: > 100 µM
- TGI [21]: > 100 µM
- TGI [22]: > 100 µM
- TGI [23]: > 100 µM
- TGI [24]: > 100 µM
- TGI [25]: > 100 µM
- TGI [26]: > 100 µM
- TGI [27]: > 100 µM
- TGI [30]: > 100 µM
- TGI [31]: > 100 µM
- TGI [32]: > 100 µM
- TGI [58]: > 100 µM
- TGI [33]: > 100 µM
- TGI [34]: > 100 µM
- TGI [35]: > 100 µM
- TGI [36]: > 100 µM
- TGI [37]: > 100 µM
- TGI [38]: > 100 µM
- TGI [39]: > 100 µM
- TGI [40]: > 100 µM
- TGI [41]: > 100 µM
- TGI [42]: > 100 µM
- TGI [43]: > 100 µM
- TGI [44]: > 100 µM
- TGI [45]: > 100 µM
- TGI [46]: > 100 µM
- TGI [47]: > 100 µM
- TGI [48]: > 100 µM
- TGI [49]: > 100 µM
- TGI [50]: > 100 µM
- TGI [51]: > 100 µM
- TGI [52]: > 100 µM
- TGI [53]: > 100 µM
- TGI [54]: > 100 µM
- TGI [55]: > 100 µM
- TGI [56]: > 100 µM
